The record followed here is BindingDB's records for doi:10.1021/jm060168g (Wyeth Research, 2006).

This experiment addresses Huh7 (Homo sapiens). The experiment in a line: Cytotoxicity against human Huh7 cell line containing HCV genotype 1b replicon. Background: Replicon systems follow genome replication, usually without infectious particles.

With `O=C(O)[C@@H]1CCCN1S(=O)(=O)c1cc(Cl)c(Cl)c(Cl)c1O` [(S)-1-(3,4,5-trichloro-2-hydroxyphenylsulfonyl)pyrrolidine-2-carboxylic acid], the IC50 (as a rule, the concentration that inhibits the measured activity by half) was > 100 µM.
